{"source": "paper PMC4307180", "about": "“Overcoming myelosuppression due to synthetic lethal toxicity for FLT3-targeted acute myeloid leukemia therapy” (eLife, 2014)", "key": {"[1]": {"system": "primary patient FLT3-ITD+ AML circulating blasts", "test": "Colony-forming assay, primary patient FLT3-ITD+ AML blasts", "type": "cell-based, human", "source_text": "Primary AML blood samples and/or marrow aspirates were obtained on an IRB-approved protocol at the University of California, San Francisco. Informed consent was obtained in accordance with the Declaration of Helsinki. Mononuclear cells were purified by density centrifugation (Ficoll–Paque Plus, GE Healthsciences) before cryopreservation in 10% (vol/vol) DMSO or FCS (primary ITD and D835-mutant assays, Figure 3A–C) or immediate use in assays (Normal BM and SPB, Figure 3D–F). Normal BM and stimulated peripheral blood (SPB) samples were collected from donors at the UCSF oncology/hematology division. Cells were then suspended in MethoCult methylcellulose (Stem Cell Technologies, product no. H4435 Enriched, Canada) in 15-ml Falcon tubes, vigorously vortexed, bubbles settled over 10 min. Triplicates then plated via blunt-nosed syringe (1.1 ml each) into 3-cm dishes, avoiding bubble generation, and each dish placed in a larger 10-cm dish with water trough in an incubator (37°C, 5% CO2) for 13–14 days. Colonies were counted individually using traditional microscopy. CFU and BFU types reported separately (CFU-GEMM colonies counted as one of each)."}, "[2]": {"system": "Molm14 cells (FLT3-ITD heterozygous)", "test": "Cell proliferation/viability assay, Molm14", "type": "cell-based", "details": "Homo sapiens, MOLM-14, 48 hr, ± SEM", "description": "(§1) Exponentially growing cells (5 × 10^3 cells per well) were plated in each well of a 96-well plate with 0.1 ml of RPMI 1640 + 10% (vol/vol) FCS containing the appropriate concentration of drug in triplicate, and cell viability was assessed after 48 hr as previously described ([Smith et al., 2012]). […] Log10-scale transformation of ratios, followed by conditional formatting using xcel spreadsheet software yielded the colored diagrams shown."}, "HMC1.1 cells": {"system": "HMC1.1 cells", "test": "Caspase-3 activation (apoptosis), HMC1.1", "type": "cell-based, human", "details": "48 hr, up to 2,500 nM", "description": "Cells were fixed with 4% (vol/vol) paraformaldehyde (Electron Microscopy Sciences) and permeabilized with 100% (vol/vol) methanol (Electron Microscopy Sciences, Hatfield, PA) followed by staining with a FITC-conjugated antiactive caspase-3 antibody (BD Pharmingen, San Jose, CA). Cells were run on a BD LSRFortessa cell analyzer, and data were analyzed using FlowJo (Tree Star Inc., Ashland, OR). Percentage of live cells was determined by negative staining for activated caspase-3 (see Figure 2B,C)."}, "Ba/F3 FLT3 ITD + Y842C": {"system": "Ba/F3 FLT3 ITD + Y842C", "test": "Ba/F3 cell viability, FLT3 ITD + Y842C", "type": "cell-based", "details": "Mus musculus, Ba/F3, 48 hr, ± SEM", "description": "Stable Ba/F3 lines were generated by retroviral spinfection with the appropriate mutated plasmid as previously described ([Smith et al., 2012]).\nas §1\nMutations isolated in the screen were engineered into pMSCVpuroFLT3–ITD by QuikChange mutagenesis (Stratagene, La Jolla, CA) as previously described ([Smith et al., 2012])."}, "KIT": {"molecular_target": "KIT (Homo sapiens, UniProt P10721)", "sequence (P10721 26-976)": "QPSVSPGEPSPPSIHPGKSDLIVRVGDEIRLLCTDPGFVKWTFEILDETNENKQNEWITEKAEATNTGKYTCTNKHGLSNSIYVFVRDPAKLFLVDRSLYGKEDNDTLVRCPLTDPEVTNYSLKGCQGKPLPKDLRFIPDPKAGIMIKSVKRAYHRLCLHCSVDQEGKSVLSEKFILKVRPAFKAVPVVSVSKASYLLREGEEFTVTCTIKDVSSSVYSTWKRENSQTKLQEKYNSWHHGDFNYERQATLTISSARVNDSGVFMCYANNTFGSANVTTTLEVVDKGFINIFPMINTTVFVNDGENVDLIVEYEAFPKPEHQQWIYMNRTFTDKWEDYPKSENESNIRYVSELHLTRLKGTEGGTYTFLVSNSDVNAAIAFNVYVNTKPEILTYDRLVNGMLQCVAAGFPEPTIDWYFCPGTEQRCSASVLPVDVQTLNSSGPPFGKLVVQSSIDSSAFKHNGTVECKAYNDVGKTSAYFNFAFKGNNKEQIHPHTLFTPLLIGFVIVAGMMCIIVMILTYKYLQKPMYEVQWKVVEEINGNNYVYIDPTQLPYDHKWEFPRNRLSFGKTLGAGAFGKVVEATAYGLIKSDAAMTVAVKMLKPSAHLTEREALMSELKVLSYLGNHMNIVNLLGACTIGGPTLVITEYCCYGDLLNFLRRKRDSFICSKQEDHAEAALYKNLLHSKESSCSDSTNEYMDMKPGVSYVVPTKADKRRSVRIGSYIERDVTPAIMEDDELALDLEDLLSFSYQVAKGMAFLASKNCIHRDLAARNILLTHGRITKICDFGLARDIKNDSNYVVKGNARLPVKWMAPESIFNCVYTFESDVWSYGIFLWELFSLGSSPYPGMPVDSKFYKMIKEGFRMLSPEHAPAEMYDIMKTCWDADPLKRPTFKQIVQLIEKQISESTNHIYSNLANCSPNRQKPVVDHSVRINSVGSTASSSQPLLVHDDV", "test": "Reaction Biology Corp kinase assay at Km-ATP (Figure 1C), KIT"}, "K562 cells (Bcr-Abl)": {"system": "K562 cells (Bcr-Abl)", "test": "Cell proliferation/viability assay, K562", "type": "cell-based", "details": "Homo sapiens, 48 hr", "description": "as §1"}, "purified FLT3 WT": {"molecular_target": "T1, purified FLT3 WT (Homo sapiens, UniProt P36888)", "T1 sequence (P36888 27-993)": "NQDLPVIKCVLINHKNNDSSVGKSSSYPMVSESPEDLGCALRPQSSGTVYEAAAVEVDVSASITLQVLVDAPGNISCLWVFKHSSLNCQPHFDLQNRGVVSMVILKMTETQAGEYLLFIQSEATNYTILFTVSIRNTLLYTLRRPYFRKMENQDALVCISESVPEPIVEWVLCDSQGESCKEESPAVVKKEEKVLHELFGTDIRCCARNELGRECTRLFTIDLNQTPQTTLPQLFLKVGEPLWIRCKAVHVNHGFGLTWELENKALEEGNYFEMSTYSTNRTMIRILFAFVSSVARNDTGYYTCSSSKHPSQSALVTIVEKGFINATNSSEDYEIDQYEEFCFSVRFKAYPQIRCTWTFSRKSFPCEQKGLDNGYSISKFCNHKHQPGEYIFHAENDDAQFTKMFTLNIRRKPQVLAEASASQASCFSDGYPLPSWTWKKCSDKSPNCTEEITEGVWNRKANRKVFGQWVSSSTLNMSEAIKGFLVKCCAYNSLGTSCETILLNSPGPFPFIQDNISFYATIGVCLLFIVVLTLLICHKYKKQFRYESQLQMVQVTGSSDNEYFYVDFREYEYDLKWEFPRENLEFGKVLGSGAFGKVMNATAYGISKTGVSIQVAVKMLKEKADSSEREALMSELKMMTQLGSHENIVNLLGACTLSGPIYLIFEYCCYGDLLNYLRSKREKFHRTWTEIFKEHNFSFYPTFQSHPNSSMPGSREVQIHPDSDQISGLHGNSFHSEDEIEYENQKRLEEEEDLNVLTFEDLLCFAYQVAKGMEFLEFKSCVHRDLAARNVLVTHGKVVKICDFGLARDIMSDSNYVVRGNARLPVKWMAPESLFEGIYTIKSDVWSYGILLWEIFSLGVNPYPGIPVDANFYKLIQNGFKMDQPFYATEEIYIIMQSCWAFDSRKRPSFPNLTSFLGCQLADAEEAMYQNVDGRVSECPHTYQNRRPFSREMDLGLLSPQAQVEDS", "test": "Radiolabeled purified kinase assay (Figure 1B)"}}, "note": "“Also recorded” adds a separate entry of the source."}
{"compound": "CC1NC(=O)c2c1c1c3ccccc3n(CCCN)c1c1[nH]c3ccccc3c21", "note": "(centres unmarked) [Star 27]", "values": [{"measurement": "inhibition at 1 µM", "setting": "[1]; Homo sapiens, at 1000 nM, read-out: inhibition of colony formation, FLT3-ITD+ blasts", "result": "> 80", "unit": "%"}, {"measurement": "raw colony numbers, FLT3-ITD+ blasts", "setting": "[1]; at 1,000 nM, ca. 1,200 CFUs in DMSO plates", "result": "ca. 20"}, {"measurement": "IC50", "setting": "[2]", "result": "57 ± 8", "unit": "nM"}, {"measurement": "apoptosis/toxicity (caspase-3) in KIT-addicted HMC1.1 cells", "setting": "HMC1.1 cells", "result": "very little up to 2,500 nM; also recorded: minimal apoptosis"}, {"measurement": "IC50", "setting": "Ba/F3 FLT3 ITD + Y842C", "result": "48 ± 29", "unit": "nM"}, {"measurement": "IC50", "setting": "KIT", "result": 1020, "unit": "nM"}, {"measurement": "IC50", "setting": "K562 cells (Bcr-Abl)", "result": "> 5000", "unit": "nM"}, {"measurement": "IC50", "setting": "purified FLT3 WT", "result": 1.5, "unit": "nM"}]}
